According to patent US9255295B2, “Method for evaluating the sensitizing potential of a test compound” (IMMUNOSEARCH, priority 2010, dated 2016):

Tested on: genes specific for sensitization (BRAK, CTSS, DAPK2, FABP4, HSP27, IL18, HSP90, IL1R2, TPSAB1, CXCR1, DEFB1, DHFR, EHF, IVL, KRT4, MELANA, NGAL, PDZK1IP1, PI3 …)
Assay: Expression of the other (non-ARE) sensitization-specific genes in EPISKIN reconstructed skin (quantitative RT-PCR)
Type: cell-based, human
Conditions: for BRAK expression / DHFR expression / HSP90 expression / IL18 expression / KRT4 expression / MELANA expression / PDZK1iP1 expression / SERPINB3 expression: compared to the control

Compound: CC=Cc1ccc(O)c(OC)c1 [Isoeugenol]
- BRAK NUMBER OF GENES grade (0.1%): 0 (if this expression is lower, the grade is 0)
- CTSS expression compared to control (0.1%): 0.9
- CTSS grade (NUMBER OF GENES) (0.1%): 0 (if this expression is lower, the grade is 0)
- CXCR1 expression compared to control (0.1%): 0.7
- CXCR1 grade (NUMBER OF GENES) (0.1%): 0 (if this expression is lower, the grade is 0)
- DAPK2 expression compared to control (0.1%): 1.1
- DAPK2 grade (NUMBER OF GENES) (0.1%): 0 (if this expression is lower, the grade is 0)
- DEFB1 expression compared to control (0.1%): 1.0
- DEFB1 grade (NUMBER OF GENES) (0.1%): 0 (if this expression is lower, the grade is 0)
- DHFR NUMBER OF GENES grade (0.1%): 0 (if this expression is lower, the grade is 0)
- EHF expression compared to control (0.1%): 1.5
- EHF grade (NUMBER OF GENES) (0.1%): 1 (If the expression is greater than 1.3 compared to the control, a grade of 11s given)
- FABP4 expression compared to control (0.1%): 0.8
- FABP4 grade (NUMBER OF GENES) (0.1%): 0 (if this expression is lower, the grade is 0)
- HSP27 expression compared to control (0.1%): 1.0
- HSP27 grade (NUMBER OF GENES) (0.1%): 0 (if this expression is lower, the grade is 0)
- HSP90 NUMBER OF GENES grade (0.1%): 0 (if this expression is lower, the grade is 0)
- IL18 NUMBER OF GENES grade (0.1%): 0 (if this expression is lower, the grade is 0)
- IVL expression compared to control (0.1%): 1.3
- IVL grade (NUMBER OF GENES) (0.1%): 1 (If the expression is greater than 1.3 compared to the control, a grade of 11s given)
- KRT4 NUMBER OF GENES grade (0.1%): 0 (if this expression is lower, the grade is 0)
- MELANA NUMBER OF GENES grade (0.1%): 0 (if this expression is lower, the grade is 0)
- NGAL expression compared to control (0.1%): 1.1
- NGAL grade (NUMBER OF GENES) (0.1%): 0 (if this expression is lower, the grade is 0)
- P13 expression compared to control (0.1%): 1.1
- P13 grade (NUMBER OF GENES) (0.1%): 0 (if this expression is lower, the grade is 0)
- PDZK1iP1 NUMBER OF GENES grade (0.1%): 0 (if this expression is lower, the grade is 0)
- SENS >1.3 (number of genes) (0.1%): 2
- SERPINB3 NUMBER OF GENES grade (0.1%): 0 (if this expression is lower, the grade is 0)
- TOTAL SENS (number of genes) (0.1%): 2
- BRAK expression (0.1%): 0.6
- DHFR expression (0.1%): 0.8
- HSP90 expression (0.1%): 0.9
- IL18 expression (0.1%): 0.6
- KRT4 expression (0.1%): 1.2
- MELANA expression (0.1%): 0.9
- PDZK1iP1 expression (0.1%): 1.0
- SERPINB3 expression (0.1%): 1.2
- BRAK NUMBER OF GENES grade (1%): 0 (if this expression is lower, the grade is 0)
- CTSS expression compared to control (1%): 0.8
- CTSS grade (NUMBER OF GENES) (1%): 0 (if this expression is lower, the grade is 0)
- CXCR1 expression compared to control (1%): 1.1
- CXCR1 grade (NUMBER OF GENES) (1%): 0 (if this expression is lower, the grade is 0)
- DAPK2 expression compared to control (1%): 0.9
- DAPK2 grade (NUMBER OF GENES) (1%): 0 (if this expression is lower, the grade is 0)
- DEFB1 expression compared to control (1%): 1.1
- DEFB1 grade (NUMBER OF GENES) (1%): 0 (if this expression is lower, the grade is 0)
- DHFR NUMBER OF GENES grade (1%): 0 (if this expression is lower, the grade is 0)
- EHF expression compared to control (1%): 1.2
- EHF grade (NUMBER OF GENES) (1%): 0 (if this expression is lower, the grade is 0)
- FABP4 expression compared to control (1%): 0.9
- FABP4 grade (NUMBER OF GENES) (1%): 0 (if this expression is lower, the grade is 0)
- HSP27 expression compared to control (1%): 0.8
- HSP27 grade (NUMBER OF GENES) (1%): 0 (if this expression is lower, the grade is 0)
- HSP90 NUMBER OF GENES grade (1%): 1 (If the expression is greater than 1.3 compared to the control, a grade of 11s given)
- IL18 NUMBER OF GENES grade (1%): 0 (if this expression is lower, the grade is 0)
- IVL expression compared to control (1%): 1.4
- IVL grade (NUMBER OF GENES) (1%): 1 (If the expression is greater than 1.3 compared to the control, a grade of 11s given)
- KRT4 NUMBER OF GENES grade (1%): 0 (if this expression is lower, the grade is 0)
- MELANA NUMBER OF GENES grade (1%): 1 (If the expression is greater than 1.3 compared to the control, a grade of 11s given)
- NGAL expression compared to control (1%): 1.1
- NGAL grade (NUMBER OF GENES) (1%): 0 (if this expression is lower, the grade is 0)
- P13 expression compared to control (1%): 0.9
- P13 grade (NUMBER OF GENES) (1%): 0 (if this expression is lower, the grade is 0)
- PDZK1iP1 NUMBER OF GENES grade (1%): 0 (if this expression is lower, the grade is 0)
- SENS >1.3 (number of genes) (1%): 5
- SERPINB3 NUMBER OF GENES grade (1%): 0 (if this expression is lower, the grade is 0)
- TOTAL SENS (number of genes) (1%): 5
- BRAK expression (1%): 0.9
- DHFR expression (1%): 0.9
- HSP90 expression (1%): 1.3
- IL18 expression (1%): 1.1
- KRT4 expression (1%): 0.8
- MELANA expression (1%): 1.4
- PDZK1iP1 expression (1%): 1.1
- SERPINB3 expression (1%): 1.2
- BRAK NUMBER OF GENES grade (10%): 0 (if this expression is lower, the grade is 0)
- CTSS expression compared to control (10%): 1.5
- CTSS grade (NUMBER OF GENES) (10%): 1 (If the expression is greater than 1.3 compared to the control, a grade of 11s given)
- CXCR1 expression compared to control (10%): 1.6
- CXCR1 grade (NUMBER OF GENES) (10%): 1 (If the expression is greater than 1.3 compared to the control, a grade of 11s given)
- DAPK2 expression compared to control (10%): 0.9
- DAPK2 grade (NUMBER OF GENES) (10%): 0 (if this expression is lower, the grade is 0)
- DEFB1 expression compared to control (10%): 1.5
- DEFB1 grade (NUMBER OF GENES) (10%): 1 (If the expression is greater than 1.3 compared to the control, a grade of 11s given)
- DHFR NUMBER OF GENES grade (10%): 0 (if this expression is lower, the grade is 0)
- EHF expression compared to control (10%): 1.4
- EHF grade (NUMBER OF GENES) (10%): 1 (If the expression is greater than 1.3 compared to the control, a grade of 11s given)
- FABP4 expression compared to control (10%): 1.2
- FABP4 grade (NUMBER OF GENES) (10%): 0 (if this expression is lower, the grade is 0)
- HSP27 expression compared to control (10%): 0.9
- HSP27 grade (NUMBER OF GENES) (10%): 0 (if this expression is lower, the grade is 0)
- HSP90 NUMBER OF GENES grade (10%): 1 (If the expression is greater than 1.3 compared to the control, a grade of 11s given)
- IL18 NUMBER OF GENES grade (10%): 0 (if this expression is lower, the grade is 0)
- IVL expression compared to control (10%): 1.9
- IVL grade (NUMBER OF GENES) (10%): 1 (If the expression is greater than 1.3 compared to the control, a grade of 11s given)
- KRT4 NUMBER OF GENES grade (10%): 0 (if this expression is lower, the grade is 0)
- MELANA NUMBER OF GENES grade (10%): 0 (if this expression is lower, the grade is 0)
- NGAL expression compared to control (10%): 2.1
- NGAL grade (NUMBER OF GENES) (10%): 1 (If the expression is greater than 1.3 compared to the control, a grade of 11s given)
- P13 expression compared to control (10%): 1.4
- P13 grade (NUMBER OF GENES) (10%): 1 (If the expression is greater than 1.3 compared to the control, a grade of 11s given)
- PDZK1iP1 NUMBER OF GENES grade (10%): 0 (if this expression is lower, the grade is 0)
- SENS >1.3 (number of genes) (10%): 10
- SERPINB3 NUMBER OF GENES grade (10%): 0 (if this expression is lower, the grade is 0)
- TOTAL SENS (number of genes) (10%): 10
- BRAK expression (10%): 0.8
- DHFR expression (10%): 0.9
- HSP90 expression (10%): 1.3
- IL18 expression (10%): 0.7
- KRT4 expression (10%): 1.0
- MELANA expression (10%): 0.6
- PDZK1iP1 expression (10%): 1.0
- SERPINB3 expression (10%): 1.1
- BRAK NUMBER OF GENES grade (50%): 0 (if this expression is lower, the grade is 0)
- CTSS expression compared to control (50%): 1.4
- CTSS grade (NUMBER OF GENES) (50%): 1 (If the expression is greater than 1.3 compared to the control, a grade of 11s given)
- CXCR1 expression compared to control (50%): 2.6
- CXCR1 grade (NUMBER OF GENES) (50%): 1 (If the expression is greater than 1.3 compared to the control, a grade of 11s given)
- DAPK2 expression compared to control (50%): 1.4
- DAPK2 grade (NUMBER OF GENES) (50%): 1 (If the expression is greater than 1.3 compared to the control, a grade of 11s given)
- DEFB1 expression compared to control (50%): 2.1
- DEFB1 grade (NUMBER OF GENES) (50%): 1 (If the expression is greater than 1.3 compared to the control, a grade of 11s given)
- DHFR NUMBER OF GENES grade (50%): 0 (if this expression is lower, the grade is 0)
- EHF expression compared to control (50%): 2.0
- EHF grade (NUMBER OF GENES) (50%): 1 (If the expression is greater than 1.3 compared to the control, a grade of 11s given)
- FABP4 expression compared to control (50%): 1.8
- FABP4 grade (NUMBER OF GENES) (50%): 1 (If the expression is greater than 1.3 compared to the control, a grade of 11s given)
- HSP27 expression compared to control (50%): 1.2
- HSP27 grade (NUMBER OF GENES) (50%): 0 (if this expression is lower, the grade is 0)
- HSP90 NUMBER OF GENES grade (50%): 1 (If the expression is greater than 1.3 compared to the control, a grade of 11s given)
- IL18 NUMBER OF GENES grade (50%): 0 (if this expression is lower, the grade is 0)
- IVL expression compared to control (50%): 2.8
- IVL grade (NUMBER OF GENES) (50%): 1 (If the expression is greater than 1.3 compared to the control, a grade of 11s given)
- KRT4 NUMBER OF GENES grade (50%): 0 (if this expression is lower, the grade is 0)
- MELANA NUMBER OF GENES grade (50%): 0 (if this expression is lower, the grade is 0)
- NGAL expression compared to control (50%): 2.7
- NGAL grade (NUMBER OF GENES) (50%): 1 (If the expression is greater than 1.3 compared to the control, a grade of 11s given)
- P13 expression compared to control (50%): 1.7
- P13 grade (NUMBER OF GENES) (50%): 1 (If the expression is greater than 1.3 compared to the control, a grade of 11s given)
- PDZK1iP1 NUMBER OF GENES grade (50%): 0 (if this expression is lower, the grade is 0)
- SENS >1.3 (number of genes) (50%): 13
- SERPINB3 NUMBER OF GENES grade (50%): 1 (If the expression is greater than 1.3 compared to the control, a grade of 11s given)
- TOTAL SENS (number of genes) (50%): 13
- BRAK expression (50%): 0.6
- DHFR expression (50%): 0.9
- HSP90 expression (50%): 1.7
- IL18 expression (50%): 0.8
- KRT4 expression (50%): 1.2
- MELANA expression (50%): 0.4
- PDZK1iP1 expression (50%): 1.1
- SERPINB3 expression (50%): 1.5
